From a melting point compilation (Tetko et al.; mined from patent text by program, amines drawn as free bases though some values may be those of a salt) come the findings set out here.

A value given as a limit tells only on which side of the number the result lay.

Compound `CCCC=CCOc1ccc(C(C)(C)CC(C)(C)C)cc1-n1nc2ccccc2n1` registered a melting point of 80 to 81 °C.
The result for `N#Cc1ccc(N2CCCC2)c2ccccc12` reads 109 to 110 °C.
The result for `CC(C)(C)OC(=O)NCCNC(=O)c1cscn1` reads 112 to 118 °C; that for `CCn1c(=O)c2c(nc(/C=C/c3ccc(OC)c(OC(C)=O)c3)n2C)n(CC)c1=O`, 241 to 242 °C.
As for `COc1ccc(C2=NN(c3ccc(C(=O)N4CCN(c5c(Cl)cncc5Cl)CC4)cc3)C(=O)[C@@H]3CC=CC[C@H]23)cc1OC`, the melting point lay within 137 to 139 °C.
In the case of `CC(C)(C)N1C[C@H](O)C[C@H]1C(=O)NC(=O)OCc1ccccc1` it was 128 to 130 °C.
The result for `COC(=O)C(=O)NCCSC(c1ccccc1)c1ccccc1` reads 88 to 89 °C; that for `Cc1c(N=C2NCCN2)cc(Br)cc1NS(C)(=O)=O`, 262 °C.
Turning to `CN(C(=O)C(Cc1c[nH]c2ccccc12)NC(=O)OC(C)(C)C(Cl)(Cl)Cl)C(Cc1ccccc1)C(N)=O` (racemic), the melting point was 100 to 105 °C.
The result for `CCOC(=O)c1cn2c3c(c(F)c(F)cc3c1=O)CCC2CO` (configuration not stated) reads 256 to 258 °C; that for `O=C(NCCCCn1ccnc1)Nc1ccccc1Cl`, 87 to 88 °C; that for `Cn1nc(-c2c(F)cccc2Cl)nc1-c1ccc(Oc2ccc(C(F)(F)F)cn2)c(Cl)c1`, 116 to 117 °C.
The result for `O=C(CP(=S)(c1ccccc1)c1ccccc1)c1ccccc1` reads 83 to 84 °C; that for `Nc1cc2c(cc1Sc1ccccc1)CCC2`, 67 °C.
In the case of `Cc1ccc2[nH]c(=O)n(CCS)c(=O)c2c1` it was 309 to 311 °C; in that of `O=C(O)[C@H](Cc1ccc(C(F)(F)F)cc1)[C@@H](O)c1ccc(F)cc1F` (racemic), 120 to 121 °C; in that of `Cc1nc(Nc2ccc(Cl)cc2)sc1-c1nc2ccccc2c(=O)n1-c1ccc(Cl)cc1`, 267 to 268 °C.
In turn, `CC(C)(C)c1cc(C(=O)Oc2ccc(Cl)c(N)c2)cc(C(C)(C)C)c1O` had a melting point of 64 to 66 °C.
In the case of `COc1nc2ccc(Br)cc2c2c1C(=O)c1ccccc1-2` it was 208 to 210 °C.
Compound `Cc1ccc(C2c3c(C)c(N4CCN(c5ccc(C(F)(F)F)cc5)CC4)c(C)c(C)c3OC2(C)C)cc1` (configuration not stated) had a melting point of 180 to 181 °C.
As to `CC(C)Nc1nc2c(Cl)c(Cl)c(Cl)cc2n1[C@H]1O[C@@H](CO)[C@H](O)[C@@H]1O`, the melting point lay within 223 to 224 °C.
In the case of `CCn1ncc2c(NCC3CCCCC3)c3cc(Br)ccc3nc21` it was 158 to 160 °C; in that of `CC(C)(C)OC(=O)N[C@@H]1C(=O)N2C(C(=O)OC(C)(C)C)=C(C=O)CC[C@H]12`, 194 to 195 °C; in that of `Nc1ccc(OCc2nc(Cl)ccc2Cl)cc1`, 74 to 75 °C.
In the case of `CN1C(=O)C2CCCN2C(=O)c2ccccc21` (configuration not stated) it was 124 to 126 °C.
The result for `CCC1=Nc2nc(C3CCCC3)[nH]c2C2=N[C@H](Cc3ccccc3)CN12` reads 187 to 189 °C; that for `Cn1nc(C(F)(F)F)cc1Oc1cc(OC(F)F)cnn1`, 86 to 88 °C.
The compound `NC(C(=O)c1ccccc1)[N+](=O)[O-]` (configuration not stated) gave a melting point of 110 to 111 °C.
The result for `NC(=O)C1CN(CCCCN(c2ccc(F)cc2)c2ccc(F)cc2)CCN1` (configuration not stated) reads 67.4 °C; that for `CCc1cc(OCc2ccc(-c3ccccc3C#N)cc2)c2ccccc2n1`, 151 to 153 °C; that for `COc1ccc(C(F)(F)F)cc1-n1c(=O)[nH]c2cc(C(F)(F)F)ccc21`, 226 °C.
In turn, `CCc1cc(Br)cc(NC(=O)C=NO)c1` came in with a melting point of 176 to 178 °C.
Consider `Cc1c2ccccc2c2c3c(cccc13)C(=O)OC2=O`, for which the melting point lay within 275 to 280 °C.
The compound `O=CN(O)C(CS(=O)(=O)c1ccc(Oc2ccc(OC(F)(F)F)cc2)cc1)CS(=O)(=O)N1CCC2(CC1)OCCO2` (configuration not stated) displayed a melting point of 178 to 179 °C.
In the case of `O=C1COC(=O)C(Cc2ccccc2)O1` (configuration not stated) it was 64 to 65 °C.
The result for `CCCc1ccc(-c2ccc(CCc3ccc(Cl)c(F)c3)cc2)cc1` reads 63.6 °C; that for `O=C(O)c1ccc(-c2ncn(-c3ccc(OC(F)(F)C(F)(F)F)cc3)n2)cc1`, 225 °C.
In the case of `CCOc1ccc(-n2nnnc2C(F)(F)F)cc1C=O` it was 87.9 to 88.4 °C.
In turn, `COC(=O)C(=O)Nc1cccc(C(=O)Nc2nnn[nH]2)c1` came in with a melting point of 253 to 254 °C.
The result for `C=C(C)Cc1c(C)c(NC=O)c(C)c(C)c1O` reads 163 to 164 °C; that for `COc1cc(O)c(C(=O)CCc2ccc3occc3c2)cc1C(O)C1OC(C(=O)C(C)C(=O)O)C(O)C(O)C1O` (configuration not stated), 113 to 114 °C.
On to `COc1ccc(CCNC(=O)CN(c2ccccc2)c2ccccc2)cc1OC`, for which the melting point was 88 to 93 °C.
The compound `Cc1nn(C)c(O)c1C(=O)c1ccc(Cl)cc1Cl` gave a melting point of 165 to 166 °C.
In the case of `COc1c(C)c(C(O)(c2cccnc2)C(C)C)c(OC)c2ccccc12` (configuration not stated) it was 130 to 131 °C; in that of `CCCC(=O)OC1(C(=O)COC(=O)CC)CCC2C3CC(C)C4=CC(=O)C=CC4(C)C3C(O)CC21C` (configuration not stated), 126 °C.
The result for `COCCc1nc2c(N)nc3cc(OCc4cccc(C#N)c4)ccc3c2n1CC(C)(C)O` reads 196 to 197 °C; that for `CCc1cc2c(NCCc3ccccc3)ccnc2s1`, 88 °C; that for `CS(=O)(=O)NC(=O)CNC(=O)NCCCCC1CCSS1` (configuration not stated), 157 to 158 °C.
Take `N#Cc1ccccc1-c1ccc(C(F)(F)F)c(Cl)c1`: the melting point was in the range of 138 to 140 °C.
The result for `COc1ccc2c(-c3ccc(F)cc3F)noc2c1Cl` reads 189 to 191 °C; that for `CCC(CC)c1ccc(Cl)c2nc3n(c12)CCN3C(=O)c1ccc(Cl)nc1`, 205 to 207 °C; that for `CCOC(=O)N1CCC(=C2c3ccccc3CCc3cccnc32)CC1`, 106 to 107 °C.
Take `COCc1ccn2nc(S(=O)(=O)Nc3c(C)cccc3Cl)nc2n1`: the melting point was found to be 196 °C.
The result for `Cc1ccc2c(-c3cc(C(C)(C)C)c(O)c(C(C)(C)C)c3)n[nH]c2n1` reads 239 to 240 °C; that for `COC(=O)CC1SC2=Nc3ccccc3CN2C1=O` (configuration not stated), 143 to 144 °C.
For `CC(CCn1cnc2ccccc21)NCC(O)COc1ccc(CC(N)=O)cc1` (configuration not stated), the melting point fell in the range of 139 to 142 °C.
Turning to `Cc1nc(N2CCCN(Cc3ccc(F)cc3)C2=O)sc1C(=O)NCc1cccnc1`, the melting point was 48 to 50 °C.
In the case of `COc1cccc(CN(C)CC(CCN2CCC(NC(C)=O)(c3ccccc3)CC2)c2ccc(Cl)c(Cl)c2)c1` (configuration not stated) it was 59 to 61 °C.
The result for `Cn1nc(-c2nc(C#N)c(N)nc2-c2ccccc2)ccc1=O` reads above 250 °C; that for `CCOC(=O)COc1c(OC)cc(Cl)c2c1CN1CCc3cc(OC)c(O)cc3C1C2` (single isomer, unassigned; (-)), 132 °C.
The result for `O=S(=O)(CCCCCOc1ccc(C2=C(c3ccccc3)CCCc3cc(OC4CCCCO4)ccc32)cc1)CCCC(F)(F)C(F)(F)F` (configuration not stated) reads 107 to 110 °C; that for `Brc1ccc(OCc2ccccc2)cc1OCc1ccccc1`, 37 to 38 °C.
In turn, `CCCCOCCOc1ccc(-c2ccc(N3CCC(C)C3)c(C=CC(=O)O)c2)cc1` (configuration not stated) showed a melting point of 136 to 139 °C.
In the case of `COc1c(-c2nnc(C)s2)cc2oc(=O)c(C)c(C)c2c1C` it was 201 to 203 °C; in that of `CN(C(=O)CCc1ccc(CN2CCC3(CCCC3)CC2)cc1)c1ccc(-c2ccc(Cl)cc2)cc1`, 119 °C.
For `Cc1ccccc1COCn1cc(Cl)cnc1=O`, the melting point stood at 88 °C.
In the case of `CC(=NO)c1ccc2c(c1)CCCN2C(=O)OC(C)(C)C` it was 127 to 129 °C.
The result for `CC(=O)C(C#N)c1ccc(F)c(Cl)c1` (configuration not stated) reads 133 to 134 °C; that for `CC(C)(C)c1cc(CC(Cc2cc(C(C)(C)C)c(O)c(C(C)(C)C)c2)[N+](=O)[O-])cc(C(C)(C)C)c1O`, 161 to 165 °C.
The result for `CCCc1c(C(=O)C(C)C)c2ccc(C(N)=O)cc2n1Cc1ccccc1NC(=O)NC` reads 222 to 223 °C; that for `CCN1C[C@@H](C(=O)OC(C)(C)C)NC1=O`, 86 to 87 °C.
Compound `CN1CC(CCl)C(c2ccccc2)(c2ccccc2)C1=O` (configuration not stated) came in with a melting point of 120 to 122 °C.
The result for `c1ccc(-c2nn3c(c2-c2nc4ncccc4[nH]2)CCC3)nc1` reads 170 to 172 °C.
The result for `COc1ccc(-c2c[nH]cc2C#N)cc1OC` reads 212 to 214 °C.
For the compound `Nc1ccc(-c2ncon2)cc1`, the melting point was 97 to 100 °C.
The result for `O=C(N[C@H](Cc1cccc(OC(F)(F)C(F)F)c1)[C@@H](O)c1ccc(CN2CCCCC2)cc1)c1cccc2c1C=CCCC2` (racemic) reads 104 to 106 °C.
The result for `CC(C)(C)OC(=O)n1cnc(CN2C[C@@H](Cc3ccccc3)N(S(C)(=O)=O)Cc3cc(C#N)ccc32)c1` reads 150 to 151 °C; that for `CC=C(C#N)c1cccnc1`, 46 to 47 °C.
As to `COC(=O)c1cc(C)cnc1C1=NC(C)(C(C)C)C(=O)N1C(=O)c1ccccc1` (configuration not stated), the melting point was 104 to 106 °C.
The result for `COc1cc(/C=C/C(=O)c2ccc(C(=O)O)cc2)cc(-c2cccs2)c1OC` reads 231 °C; that for `Cc1cc(C2=NN(C(N)=S)[C@H](C)Cc3cc4c(cc32)OCO4)cc(C)c1[N+](=O)[O-]`, 228 to 230 °C.
Consider `Fc1cc(F)cc(C=Cc2cc3cc4ccccc4cc3s2)c1`, for which the melting point lay in the range of 265 to 267 °C.
`COc1ccc(C(=O)NNC(C)=N)cc1` came in with a melting point of 179 to 181 °C.
`CCOC(=O)C(=O)CC(=O)c1cn(Cc2ccc(F)cc2)c2cc(Cl)c(Cl)cc2c1=O` came in with a melting point of 144 to 145 °C.
In the case of `CN(C)C(=O)c1cn(C)c2nc3cc(F)c(F)cc3cc2c1=O` it was 324 °C.
In turn, `CC1(C)OC(=O)C(Oc2ccc3ccccc3n2)=C1c1ccc(S(C)(=O)=O)cc1` had a melting point of 141 to 142 °C.
Compound `COC(=O)c1ccccc1-c1cc(-c2ccc(C(F)(F)F)cc2)no1` had a melting point of 90.5 to 92 °C.

One may read the melting point as the temperature, or range, at which the solid turns liquid.
